Laboratory results published in ChEMBL document CHEMBL4507279, “Data for DCP probe BI-9627” (2021).

Columns and labels:
[1] = target: Casein kinase I isoform alpha-like (Homo sapiens) (UniProt Q8N752); conditions: Compound concentration 1000.0 nM
[2] = target: Non-receptor tyrosine-protein kinase TYK2 (Homo sapiens) (UniProt P29597); conditions: Compound concentration 1000.0 nM
[3] = target: Receptor-interacting serine/threonine-protein kinase 4 (Homo sapiens) (UniProt P57078); conditions: Compound concentration 1000.0 nM
[4] = tested on: Tyrosine-protein kinase ABL1 (Homo sapiens), P00519 [F317I]; conditions: Compound concentration 1000.0 nM
[5] = target: Fibroblast growth factor receptor 2 (Homo sapiens) (UniProt P21802); conditions: Compound concentration 1000.0 nM
[6] = target: Tyrosine-protein kinase Fer (Homo sapiens) (UniProt P16591); conditions: Compound concentration 1000.0 nM
[7] = target: Serine/threonine-protein kinase PAK 4 (Homo sapiens) (UniProt O96013); conditions: Compound concentration 1000.0 nM
[8] = tested on: Epidermal growth factor receptor (Homo sapiens), P00533 [G719S]; conditions: Compound concentration 1000.0 nM
[9] = tested on: Tyrosine-protein kinase ABL1 (Homo sapiens), P00519 [Q252H]; conditions: Compound concentration 1000.0 nM
[10] = target: T1, Muscarinic acetylcholine receptor M1 (Homo sapiens) (UniProt P11229); conditions: Compound concentration 10.0 uM
T1 sequence (whole entry): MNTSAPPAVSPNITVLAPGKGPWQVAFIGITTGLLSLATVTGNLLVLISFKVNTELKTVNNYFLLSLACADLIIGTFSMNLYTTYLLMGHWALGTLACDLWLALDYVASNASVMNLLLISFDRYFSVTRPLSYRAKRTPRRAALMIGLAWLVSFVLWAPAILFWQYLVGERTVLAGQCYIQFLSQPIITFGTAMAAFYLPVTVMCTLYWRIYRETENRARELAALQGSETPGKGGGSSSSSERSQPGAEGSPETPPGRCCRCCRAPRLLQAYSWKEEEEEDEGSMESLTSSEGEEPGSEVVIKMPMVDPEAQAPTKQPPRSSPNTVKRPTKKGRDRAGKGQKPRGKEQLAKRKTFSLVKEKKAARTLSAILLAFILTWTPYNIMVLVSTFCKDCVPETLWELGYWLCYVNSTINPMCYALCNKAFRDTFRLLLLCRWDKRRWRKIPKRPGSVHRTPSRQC

[11] = target: Mast/stem cell growth factor receptor Kit (Homo sapiens) (UniProt P10721); conditions: Compound concentration 1000.0 nM
[12] = target: Tyrosine-protein kinase Srms (Homo sapiens) (UniProt Q9H3Y6); conditions: Compound concentration 1000.0 nM
[13] = target: Histamine H1 receptor (Homo sapiens) (UniProt P35367); conditions: Compound concentration 10.0 uM
[14] = target: Serine/threonine-protein kinase 33 (Homo sapiens) (UniProt Q9BYT3); conditions: Compound concentration 1000.0 nM
[15] = target: Serine/threonine-protein kinase ULK2 (Homo sapiens) (UniProt Q8IYT8); conditions: Compound concentration 1000.0 nM
[16] = target: Serine/threonine-protein kinase TAO2 (Homo sapiens) (UniProt Q9UL54); conditions: Compound concentration 1000.0 nM
[17] = target: Ribosomal protein S6 kinase alpha-6 (Homo sapiens) (UniProt Q9UK32); conditions: Compound concentration 1000.0 nM
[18] = target: Citron Rho-interacting kinase (Homo sapiens) (UniProt O14578); conditions: Compound concentration 1000.0 nM
[19] = target: Dual specificity tyrosine-phosphorylation-regulated kinase 1A (Homo sapiens) (UniProt Q13627); conditions: Compound concentration 1000.0 nM
[20] = target: Fibroblast growth factor receptor 4 (Homo sapiens) (UniProt P22455); conditions: Compound concentration 1000.0 nM
[21] = target: Mitogen-activated protein kinase kinase kinase kinase 1 (Homo sapiens) (UniProt Q92918); conditions: Compound concentration 1000.0 nM
[22] = target: Homeodomain-interacting protein kinase 2 (Homo sapiens) (UniProt Q9H2X6); conditions: Compound concentration 1000.0 nM
[23] = target: Serine/threonine-protein kinase WNK3 (Homo sapiens) (UniProt Q9BYP7); conditions: Compound concentration 1000.0 nM
[24] = target: Serine/threonine-protein kinase haspin (Homo sapiens) (UniProt Q8TF76); conditions: Compound concentration 1000.0 nM
[25] = target: Sodium/hydrogen exchanger 2 (Homo sapiens, UniProt Q9UBY0); experiment: pHi change assay with SLC9A2
[26] = target: Serine/threonine-protein kinase/endoribonuclease IRE1 (Homo sapiens) (UniProt O75460); conditions: Compound concentration 1000.0 nM
[27] = target: Ribosomal protein S6 kinase alpha-1 (Homo sapiens) (UniProt Q15418); conditions: Compound concentration 1000.0 nM
[28] = target: Serine/threonine-protein kinase Nek4 (Homo sapiens) (UniProt P51957); conditions: Compound concentration 1000.0 nM
[29] = target: Phosphatidylinositol 4,5-bisphosphate 3-kinase catalytic subunit beta isoform (Homo sapiens) (UniProt P42338); conditions: Compound concentration 1000.0 nM
[30] = target: Tyrosine-protein kinase Tec (Homo sapiens) (UniProt P42680); conditions: Compound concentration 1000.0 nM
[31] = target: Serine/threonine-protein kinase N1 (Homo sapiens) (UniProt Q16512); conditions: Compound concentration 1000.0 nM
[32] = target: Serine/threonine-protein kinase 32A (Homo sapiens) (UniProt Q8WU08); conditions: Compound concentration 1000.0 nM
[33] = tested on: Receptor-type tyrosine-protein kinase FLT3 (Homo sapiens), P36888 [UNDEFINED MUTATION]; conditions: Compound concentration 1000.0 nM
[34] = target: 5-hydroxytryptamine receptor 6 (Homo sapiens) (UniProt P50406); conditions: Compound concentration 10.0 uM
[35] = target: Tyrosine-protein kinase ZAP-70 (Homo sapiens) (UniProt P43403); conditions: Compound concentration 1000.0 nM
[36] = target: STE20-like serine/threonine-protein kinase (Homo sapiens) (UniProt Q9H2G2); conditions: Compound concentration 1000.0 nM
[37] = target: Ephrin type-A receptor 8 (Homo sapiens) (UniProt P29322); conditions: Compound concentration 1000.0 nM
[38] = target: Tyrosine-protein kinase TXK (Homo sapiens) (UniProt P42681); conditions: Compound concentration 1000.0 nM
[39] = target: Transient receptor potential cation channel subfamily M member 6 (Homo sapiens) (UniProt Q9BX84); conditions: Compound concentration 1000.0 nM

Sequence of Receptor-type tyrosine-protein kinase FLT3 (Homo sapiens), P36888 [UNDEFINED MUTATION] (P36888 whole entry, looked up, change not shown): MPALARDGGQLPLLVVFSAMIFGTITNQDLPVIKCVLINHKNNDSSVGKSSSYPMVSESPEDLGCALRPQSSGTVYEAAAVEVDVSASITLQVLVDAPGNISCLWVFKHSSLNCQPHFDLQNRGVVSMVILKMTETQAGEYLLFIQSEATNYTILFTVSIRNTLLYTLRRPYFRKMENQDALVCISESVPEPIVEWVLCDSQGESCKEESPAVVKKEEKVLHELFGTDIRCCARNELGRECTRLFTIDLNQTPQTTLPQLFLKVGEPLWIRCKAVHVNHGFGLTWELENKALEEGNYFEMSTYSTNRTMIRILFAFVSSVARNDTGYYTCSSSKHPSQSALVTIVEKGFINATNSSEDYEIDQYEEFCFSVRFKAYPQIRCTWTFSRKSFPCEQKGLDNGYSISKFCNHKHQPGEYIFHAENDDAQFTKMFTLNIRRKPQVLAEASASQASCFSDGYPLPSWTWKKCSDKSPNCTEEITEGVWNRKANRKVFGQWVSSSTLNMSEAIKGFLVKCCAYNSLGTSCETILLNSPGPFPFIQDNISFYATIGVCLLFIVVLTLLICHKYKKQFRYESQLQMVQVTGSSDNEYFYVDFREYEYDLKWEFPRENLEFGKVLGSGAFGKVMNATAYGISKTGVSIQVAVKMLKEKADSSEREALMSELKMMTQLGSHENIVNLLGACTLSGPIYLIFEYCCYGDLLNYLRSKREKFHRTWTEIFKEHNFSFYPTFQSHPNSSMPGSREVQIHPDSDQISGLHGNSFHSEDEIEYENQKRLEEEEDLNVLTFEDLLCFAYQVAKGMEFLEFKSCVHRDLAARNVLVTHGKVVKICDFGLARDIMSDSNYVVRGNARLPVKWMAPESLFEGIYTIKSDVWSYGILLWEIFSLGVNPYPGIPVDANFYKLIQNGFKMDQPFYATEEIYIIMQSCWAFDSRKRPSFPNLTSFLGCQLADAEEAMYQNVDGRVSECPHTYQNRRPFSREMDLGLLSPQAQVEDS
Sequence of Fibroblast growth factor receptor 4 (Homo sapiens) (P22455 22-802 limits assumed): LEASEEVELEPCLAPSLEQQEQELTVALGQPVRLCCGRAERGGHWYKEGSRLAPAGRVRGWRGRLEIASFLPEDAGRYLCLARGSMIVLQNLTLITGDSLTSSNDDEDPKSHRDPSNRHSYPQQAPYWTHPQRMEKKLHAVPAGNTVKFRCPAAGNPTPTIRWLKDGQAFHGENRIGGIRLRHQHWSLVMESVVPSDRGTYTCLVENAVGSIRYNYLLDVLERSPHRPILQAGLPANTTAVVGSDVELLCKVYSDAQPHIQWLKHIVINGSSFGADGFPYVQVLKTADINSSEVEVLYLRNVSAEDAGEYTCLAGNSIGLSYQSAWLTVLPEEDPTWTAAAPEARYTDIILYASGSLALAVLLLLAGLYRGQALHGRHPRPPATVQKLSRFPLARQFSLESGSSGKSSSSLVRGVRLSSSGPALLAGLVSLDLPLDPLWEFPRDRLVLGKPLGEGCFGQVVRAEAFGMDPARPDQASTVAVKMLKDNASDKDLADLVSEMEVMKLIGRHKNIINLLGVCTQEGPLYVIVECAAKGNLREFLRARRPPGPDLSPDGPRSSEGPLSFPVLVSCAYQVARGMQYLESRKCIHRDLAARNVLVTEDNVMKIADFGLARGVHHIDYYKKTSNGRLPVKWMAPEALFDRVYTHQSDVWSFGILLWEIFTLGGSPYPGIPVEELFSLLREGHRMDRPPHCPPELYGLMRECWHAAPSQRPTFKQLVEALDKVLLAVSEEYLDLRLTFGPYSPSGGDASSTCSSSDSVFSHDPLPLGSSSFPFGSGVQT
Sequence of Serine/threonine-protein kinase N1 (Homo sapiens) (Q16512 2-942 limits assumed): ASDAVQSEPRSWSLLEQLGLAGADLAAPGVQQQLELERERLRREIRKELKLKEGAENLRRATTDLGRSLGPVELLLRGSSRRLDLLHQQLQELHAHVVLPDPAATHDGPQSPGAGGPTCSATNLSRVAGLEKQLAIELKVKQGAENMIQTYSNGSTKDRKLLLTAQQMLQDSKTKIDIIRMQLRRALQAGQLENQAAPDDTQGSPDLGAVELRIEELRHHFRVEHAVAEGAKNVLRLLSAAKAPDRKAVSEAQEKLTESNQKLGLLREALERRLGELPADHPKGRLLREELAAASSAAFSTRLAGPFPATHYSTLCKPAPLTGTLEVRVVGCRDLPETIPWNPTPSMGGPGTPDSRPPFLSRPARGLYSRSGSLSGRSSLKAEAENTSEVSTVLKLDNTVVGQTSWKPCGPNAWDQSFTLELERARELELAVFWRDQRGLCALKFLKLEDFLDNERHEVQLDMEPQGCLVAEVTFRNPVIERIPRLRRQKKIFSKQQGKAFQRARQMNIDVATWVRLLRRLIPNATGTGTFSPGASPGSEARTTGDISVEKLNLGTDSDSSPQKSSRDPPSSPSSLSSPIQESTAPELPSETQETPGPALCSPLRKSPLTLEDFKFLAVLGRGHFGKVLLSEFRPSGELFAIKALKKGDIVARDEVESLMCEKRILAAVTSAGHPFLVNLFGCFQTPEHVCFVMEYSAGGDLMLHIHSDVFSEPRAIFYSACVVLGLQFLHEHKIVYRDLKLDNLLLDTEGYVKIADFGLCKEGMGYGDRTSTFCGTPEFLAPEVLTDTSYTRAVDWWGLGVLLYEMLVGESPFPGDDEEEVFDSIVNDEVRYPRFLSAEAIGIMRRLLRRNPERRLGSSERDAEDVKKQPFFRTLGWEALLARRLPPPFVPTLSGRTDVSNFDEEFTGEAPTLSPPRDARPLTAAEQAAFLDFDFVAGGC
Sequence of Serine/threonine-protein kinase WNK3 (Homo sapiens) (Q9BYP7 whole entry): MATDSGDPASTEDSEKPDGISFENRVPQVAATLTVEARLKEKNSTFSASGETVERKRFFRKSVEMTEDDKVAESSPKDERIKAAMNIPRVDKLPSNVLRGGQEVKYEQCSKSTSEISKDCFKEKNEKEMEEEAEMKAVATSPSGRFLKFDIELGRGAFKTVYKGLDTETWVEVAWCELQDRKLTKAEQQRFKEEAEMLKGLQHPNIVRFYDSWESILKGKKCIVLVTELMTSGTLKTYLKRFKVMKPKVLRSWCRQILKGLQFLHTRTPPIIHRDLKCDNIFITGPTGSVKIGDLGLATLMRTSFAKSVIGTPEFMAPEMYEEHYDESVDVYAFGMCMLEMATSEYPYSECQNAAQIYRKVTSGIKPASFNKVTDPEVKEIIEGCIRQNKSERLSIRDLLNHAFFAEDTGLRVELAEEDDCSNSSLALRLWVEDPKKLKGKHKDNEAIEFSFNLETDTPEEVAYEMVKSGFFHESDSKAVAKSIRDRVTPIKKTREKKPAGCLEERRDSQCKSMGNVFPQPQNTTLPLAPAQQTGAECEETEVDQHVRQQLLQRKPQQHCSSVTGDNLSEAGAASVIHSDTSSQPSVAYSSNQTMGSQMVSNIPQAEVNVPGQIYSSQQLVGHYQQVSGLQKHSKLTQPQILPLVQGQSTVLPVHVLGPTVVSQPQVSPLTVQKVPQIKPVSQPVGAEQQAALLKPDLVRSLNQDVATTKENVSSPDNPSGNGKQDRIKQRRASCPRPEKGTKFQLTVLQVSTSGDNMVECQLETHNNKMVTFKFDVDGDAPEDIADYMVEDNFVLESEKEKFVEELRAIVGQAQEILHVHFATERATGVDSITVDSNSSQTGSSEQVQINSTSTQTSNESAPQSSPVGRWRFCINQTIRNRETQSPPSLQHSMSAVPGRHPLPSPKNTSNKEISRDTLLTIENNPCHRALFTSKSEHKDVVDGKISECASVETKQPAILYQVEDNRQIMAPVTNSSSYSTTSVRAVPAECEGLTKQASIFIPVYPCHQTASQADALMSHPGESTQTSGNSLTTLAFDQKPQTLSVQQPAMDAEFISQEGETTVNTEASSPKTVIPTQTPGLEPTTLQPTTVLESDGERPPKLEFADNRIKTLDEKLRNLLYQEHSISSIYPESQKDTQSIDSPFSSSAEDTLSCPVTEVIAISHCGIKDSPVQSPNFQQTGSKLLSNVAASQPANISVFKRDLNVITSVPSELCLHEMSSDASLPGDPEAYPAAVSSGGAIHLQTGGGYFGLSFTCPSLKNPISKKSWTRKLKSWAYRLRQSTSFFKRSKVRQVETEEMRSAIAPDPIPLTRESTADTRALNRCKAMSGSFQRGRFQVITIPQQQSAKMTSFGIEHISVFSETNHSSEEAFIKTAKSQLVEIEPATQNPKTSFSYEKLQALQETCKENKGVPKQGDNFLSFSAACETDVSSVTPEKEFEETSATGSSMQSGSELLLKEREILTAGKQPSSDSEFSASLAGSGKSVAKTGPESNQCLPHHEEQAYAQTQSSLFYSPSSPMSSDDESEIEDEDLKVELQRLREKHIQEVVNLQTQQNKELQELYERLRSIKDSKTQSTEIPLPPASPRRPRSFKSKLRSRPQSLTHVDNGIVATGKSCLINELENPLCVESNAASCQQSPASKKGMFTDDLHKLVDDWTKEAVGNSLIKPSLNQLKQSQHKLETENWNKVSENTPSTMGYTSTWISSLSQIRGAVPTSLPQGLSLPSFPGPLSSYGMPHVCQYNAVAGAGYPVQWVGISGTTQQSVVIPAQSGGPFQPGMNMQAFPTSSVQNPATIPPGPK
Sequence of Tyrosine-protein kinase Srms (Homo sapiens) (Q9H3Y6 whole entry): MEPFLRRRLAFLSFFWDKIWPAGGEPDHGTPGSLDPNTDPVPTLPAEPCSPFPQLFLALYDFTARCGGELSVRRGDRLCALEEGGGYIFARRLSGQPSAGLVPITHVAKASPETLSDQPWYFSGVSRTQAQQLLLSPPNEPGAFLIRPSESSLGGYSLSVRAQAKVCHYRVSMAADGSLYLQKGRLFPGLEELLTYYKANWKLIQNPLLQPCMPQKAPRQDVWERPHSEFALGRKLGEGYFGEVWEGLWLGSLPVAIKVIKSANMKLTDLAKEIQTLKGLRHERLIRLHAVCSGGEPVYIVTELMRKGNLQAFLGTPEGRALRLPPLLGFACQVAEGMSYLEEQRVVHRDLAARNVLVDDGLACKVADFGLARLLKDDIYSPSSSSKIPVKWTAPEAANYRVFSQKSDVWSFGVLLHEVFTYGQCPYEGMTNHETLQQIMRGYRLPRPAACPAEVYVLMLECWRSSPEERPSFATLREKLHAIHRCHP

Row | SMILES | residual activity [1] [%] | residual activity [2] [%] | residual activity [3] [%] | residual activity [4] [%] | residual activity [5] [%] | residual activity [6] [%] | residual activity [7] [%] | residual activity [8] [%] | residual activity [9] [%] | inhibition [10] [%] | residual activity [11] [%] | residual activity [12] [%] | inhibition [13] [%] | residual activity [14] [%] | residual activity [15] [%] | residual activity [16] [%] | residual activity [17] [%] | residual activity [18] [%] | residual activity [19] [%] | residual activity [20] [%] | further results
1 | CC(=O)N1CCC(c2ccc(C(=O)NC3=NCCN3)cc2C(F)(F)F)CC1 [BI 0054] | 100 | 100 | 64 | 77 | 86 | 93 | 100 | 100 | 88 | -7.86 | 91 | 89 | -0.162 | 100 | 82 | 100 | 94 | 100 | 74 | 88 | residual activity [21]: 100%; residual activity [22]: 100%; residual activity [23]: 86%; residual activity [24]: 78%; IC50 [25]: > 10 µM (not active); residual activity [26]: 60%; residual activity [27]: 100%; residual activity [28]: 100%; residual activity [29]: 100%; residual activity [30]: 100%; residual activity [31]: 100%; residual activity [32]: 100%; residual activity [33]: 89%; inhibition [34]: 0.267%; residual activity [35]: 97%; residual activity [36]: 94%; residual activity [37]: 93%; residual activity [38]: 82%; residual activity [39]: 90%
2 | CC(=O)N1CCC(c2ccc(C(=O)NC(=N)N)cc2C(F)(F)F)CC1 [BI 9627] | 100 | 100 | 76 | 92 | 100 | 96 | 100 | 96 | 79 | 12.4 | 95 | 80 | 7.6 | 100 | 100 | 94 | 96 | 98 | 74 | 100 | residual activity [21]: 100%; residual activity [22]: 100%; residual activity [23]: 84%; residual activity [24]: 100%; IC50 [25]: 0.231 µM (not active); residual activity [26]: 100%; residual activity [27]: 100%; residual activity [28]: 100%; residual activity [29]: 100%; residual activity [30]: 100%; residual activity [31]: 87%; residual activity [32]: 100%; residual activity [33]: 100%; inhibition [34]: 1.25%; residual activity [35]: 100%; residual activity [36]: 100%; residual activity [37]: 100%; residual activity [38]: 100%; residual activity [39]: 98%
